Assay results: patent US5059625A, “Polyglycidol amine oxide surfactants having antimicrobial activity” (Olin Corporation, priority 1990, dated 1991)

Assays:
[1] = test system: STAPHYLOCOCCUS AUREUS (Gram positive); experiment: Minimum Inhibitory Concentration (MIC) test; assay type: cell-based
Description: (§1) Minimum Inhibitory Concentration (MIC's) were determined and compared to a nonylphenol-glycidol based surfactant.

E[…] (Gram Negative) = experiment: Minimum Inhibitory Concentration (MIC) test; assay type: cell-based; details: Escheridida coli (Gram negative)
Description: as §1

A[…] (Fungus) = experiment: Minimum Inhibitory Concentration (MIC) test; assay type: cell-based; details: Aspergillus niger (fungus)
Description: as §1

[2] = Surface tension (ASTM Designation D1331-56); assay type: physicochemical; details: 0.1 wt. % concentration; ASTM D1331-56
Description: The surface tensions (ASTM Designation D1331-56) of the products at 0.1 wt. % concentration were as follows: […]

[3] = Solubility in 50% sodium hydroxide solution; assay type: physicochemical
Description: A 500 ml, 3-necked round bottom flask was fitted with a mechanical stirrer, thermometer, nitrogen inlet, dropping funnel and vent. Under the nitrogen atmosphere, Armeen CD^(1), 15 g (0.075 mole) was placed in the flask and the contents heated to 138° C. Glycidol in an amount of 16.67 g (0.225 mole) was placed in the dropping funnel and glycidol addition to the Armeen CD was initiated at a rate of approximately 0.15 g/minute. Reaction temperature was maintained at 140°-152° C. and glycidol addition was completed in about 2 hours. The reaction mixture was stirred and heated at reaction temperature an additional 2 hours. The flask and its contents were then cooled and the product removed. […] This product was referred to as cocamine 3-mole glycidol adduct and its molecular weight was 422.
All three products were soluble in 50% sodium hydroxide solution.

Substance | Minimum Inhibitory Concentration [1] [PPM] | Minimum Inhibitory Concentration (E[…] (Gram Negative)) [PPM] | Minimum Inhibitory Concentration (A[…] (Fungus)) [PPM] | surface tension [2] [dynes/cm] | solubility in 50% sodium hydroxide solution [3]
Armeen CD-3m glycidol amine [Example I] | 32 | 256 | 128 | 32.3 | –
cocamine 3-mole glycidol adduct | – | – | – | – | soluble and clear
